Laboratory results from patent US20220153732A1, “PROTEIN SECRETION INHIBITORS” (KEZAR LIFE SCIENCES, priority 2019, published 2022).
Each block holds one compound with its values, some of them ahead of it.

How the values were obtained:
Assay type in all cases: cell-based
[1] = test system: IL-2-FL/Gaussia Luciferase; assay: Dox Induced IL2-FL-Gluc Assay; settings: 24 hr doxycycline induction, 293FRT/TO cells, Gaussia luciferase signal; read-out: 24 hr Dox Inducible IL2FLGIuc 293FRT/TO: Mean IC50
Method in brief: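 Stable T-REx cell line expressing doxycycline-inducible IL-2-FL/Gaussia luciferase cDNA, plated the day before assay. Compound dilutions in DMSO/media containing doxycycline added and incubated at 37° C., 5% CO2. Unspecified stereochemistry means data refer to a stereoisomer mixture.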

[2] = test system: HER3-ss+4aa/Gaussia Luciferase; assay: Dox-Induced Her3-ss-Gluc Assay; settings: 24 hr doxycycline induction, 293FRT/TO cells, Gaussia luciferase signal; read-out: 24 hr Dox Inducible Her3(ss + 4)Gluc 293FRT/TO: Mean IC50
Method in brief: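 Stable T-REx cell line carrying a doxycycline-regulated HER3-ss+4aa/Gaussia luciferase insert, plated the day before assay. Compound dilutions in DMSO/media with doxycycline added, then incubated at 37° C., 5% CO2. Stereoisomer mixtures tested where stereochemistry is not drawn.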

[3] = test system: TNFα-FL/Gaussia Luciferase; assay: Dox Induced TNFα-FL-Gluc Assay; settings: 24 hr doxycycline induction, 293FRT/TO cells, Gaussia luciferase signal; read-out: 24 hr Dox Inducible TNFaFLGluc 293FRT/TO: Mean IC50
Method in brief: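 A stable T-REx cell line carrying doxycycline-inducible TNFα-FL/Gaussia luciferase was plated the day before assay. Compound dilutions in DMSO/media containing doxycycline were then added and incubated at 37° C, 5% CO2.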

[4] = test system: PD1-ss+10aa/Gaussia Luciferase; assay: Dox-Induced PD1-ss-Gluc Assay; settings: 24 hr doxycycline induction, 293FRT/TO cells, Gaussia luciferase signal; read-out: 24 hr Dox Inducible PD1ssGluc 293FRT/TO: Mean IC50
Method in brief: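 Stable cell line carrying PD1-ss+10aa/Gaussia luciferase cDNA under T-REx (doxycycline-inducible) control, plated the day before assay. Compound dilutions in DMSO/media containing doxycycline added and incubated at 37° C, 5% CO2. Undefined stereocentres: data refer to stereoisomer mixtures.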

[5] = test system: human multiple myeloma cell line NCI-H929; assay: H929 Cell Viability Assay; settings: 48 hr, NCI-H929 cells, Celltiter-Glo, read-out: 48 hr H929 Viability Celltiter-Glo: Mean EC50
Procedure: Plates were incubated at 37° C., 5% CO2 for 48 hours. After 48 hours, Celltiter-Glo® (Promega) was added to each well and luciferase signal was quantified using Tecan Infinite M1000 Pro for cell viability determination.
For chemical structures that include one or more stereoisomers, but are illustrated without indicating stereochemistry, the assay data refers to a mixture of stereoisomers.

[6] = test system: human multiple myeloma cell line U266B1; assay: U266 Cell Viability Assay; settings: U-266, 48 hr, U266B1 cells, Celltiter-Glo, read-out: 48 hr U266 Viability Celltiter-Glo: Mean EC50
Method in brief: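 U266B1 myeloma cells treated with compound dilutions in DMSO/media for 48 h at 37 °C, 5% CO2. Viability read by CellTiter-Glo luminescence. Stereochemically undefined structures were tested as stereoisomer mixtures.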

Compound: COc1cnc(NC(=O)c2cccn2Cc2ccncc2)s1 [Compound A82]
IC50 [1]: > 25 µM
IC50 [2]: > 25 µM
IC50 [3]: > 25 µM
IC50 [4]: 4.66 µM
EC50 [5]: > 25 µM
EC50 [6]: > 25 µM

Compound: CC(C)OC(C)(C)c1csc(NC(=O)c2cccn2Cc2cc[n+]([O-])cc2)n1 [Compound A85]
IC50 [1]: > 25 µM
IC50 [2]: > 25 µM
IC50 [3]: > 25 µM
IC50 [4]: 7.54 µM
EC50 [5]: > 25 µM
EC50 [6]: > 25 µM

Compound: CC(C)OC(C)(C)c1csc(NC(=O)c2c(Cl)ccn2Cc2ccncc2)n1 [Compound A86, 3-chloro-N-(4-(2-isopropoxypropan-2-yl)thiazol-2-yl)-1-(pyridin-4-ylmethyl)-1H-pyrrole-2-carboxamide]
IC50 [1]: > 25 µM
IC50 [2]: > 25 µM
IC50 [3]: > 25 µM
IC50 [4]: 8 µM
EC50 [5]: > 25 µM
EC50 [6]: > 25 µM

Compound: Cc1ccn(Cc2ccncc2)c1C(=O)Nc1nc(C(C)(C)OC(C)C)cs1 [Compound A88, N-(4-(2-isopropoxypropan-2-yl)thiazol-2-yl)-3-methyl-1-(pyridin-4-ylmethyl)-1H-pyrrole-2-carboxamide]
IC50 [1]: > 25 µM
IC50 [2]: > 25 µM
IC50 [3]: > 25 µM
IC50 [4]: 9.65 µM
EC50 [5]: > 25 µM
EC50 [6]: > 25 µM

Compound: CC(C)(O)c1cnc(NC(=O)c2cccn2Cc2ccncc2)s1 [Compound A89]
IC50 [1]: > 25 µM
IC50 [2]: > 25 µM
IC50 [3]: > 25 µM
IC50 [4]: 9.85 µM
EC50 [5]: > 25 µM
EC50 [6]: > 25 µM

Compound: CC(C)OC(C)(C)c1csc(NC(=O)c2cccn2Cc2ccnc3ccccc23)n1 [Compound A90, N-(4-(2-isopropoxypropan-2-yl)thiazol-2-yl)-1-(quinolin-4-ylmethyl)-1H-pyrrole-2-carboxamide]
IC50 [1]: > 25 µM
IC50 [2]: > 25 µM
IC50 [3]: > 25 µM
IC50 [4]: 10 µM
EC50 [5]: 16.9 µM
EC50 [6]: > 25 µM

Compound: CCc1sc(NC(=O)c2cccn2Cc2ccncc2)nc1CN1CCN(S(=O)(=O)CC)CC1 [Compound A92, N-(5-ethyl-4-((4-(ethylsulfonyl)piperazin-1-yl)methyl)thiazol-2-yl)-1-(pyridin-4-ylmethyl)-1H-pyrrole-2-carboxamide]
IC50 [1]: > 25 µM
IC50 [2]: > 25 µM
IC50 [3]: > 25 µM
IC50 [4]: 13.1 µM
EC50 [5]: > 25 µM
EC50 [6]: > 25 µM

Compound: CC(C)OC(C)(C)c1csc(NC(=O)c2cccn2CC2CNC(=O)C2)n1 (stereo not drawn) [Compound A93, N-(4-(2-isopropoxypropan-2-yl)thiazol-2-yl)-1-((5-oxopyrrolidin-3-yl)methyl)-1H-pyrrole-2-carboxamide]
IC50 [1]: > 25 µM
IC50 [2]: > 25 µM
IC50 [3]: > 25 µM
IC50 [4]: 13.2 µM
EC50 [5]: > 25 µM
EC50 [6]: > 25 µM

Compound: COCc1cnc(NC(=O)c2cccn2Cc2ccncc2)s1 [Compound A94]
IC50 [1]: > 25 µM
IC50 [2]: > 25 µM
IC50 [3]: > 25 µM
IC50 [4]: 14.6 µM
EC50 [5]: > 25 µM
EC50 [6]: > 25 µM

Compound: O=C(Nc1nc2c(s1)COCC2)c1cccn1Cc1ccncc1 [Compound A95]
IC50 [1]: > 25 µM
IC50 [2]: > 25 µM
IC50 [3]: > 25 µM
IC50 [4]: 14.7 µM
EC50 [5]: > 25 µM
EC50 [6]: > 25 µM

Compound: CCS(=O)(=O)N1CCN(Cc2csc(NC(=O)c3cccn3Cc3ccncc3)n2)CC1 [Compound A96, N-(4-((4-(ethylsulfonyl)piperazin-1-yl)methyl)thiazol-2-yl)-1-(pyridin-4-ylmethyl)-1H-pyrrole-2-carboxamide]
IC50 [1]: > 25 µM
IC50 [2]: > 25 µM
IC50 [3]: > 25 µM
IC50 [4]: 15.7 µM
EC50 [5]: > 25 µM
EC50 [6]: > 25 µM

Other lines, results leading:

IC50 [1]: 22.4 µM
IC50 [2]: 6.11 µM
IC50 [3]: > 25 µM
IC50 [4]: 2.47 µM
EC50 [5]: > 25 µM
EC50 [6]: > 25 µM
Compound: Cc1cnc(NC(=O)c2cccn2Cc2ccncc2)s1 [Compound A72, N-(5-methylthiazol-2-yl)-1-(pyridin-4-ylmethyl)-1H-pyrrole-2-carboxamide]

IC50 [1]: 2.02 µM
IC50 [2]: 7.28 µM
IC50 [3]: > 25 µM
IC50 [4]: 2.47 µM
EC50 [5]: > 25 µM
EC50 [6]: > 25 µM
Compound: Cc1ccc2nc(NC(=O)c3cccn3Cc3ccncc3)sc2c1 [Compound A73]

IC50 [1]: 4.22 µM
IC50 [2]: 5.39 µM
IC50 [3]: > 25 µM
IC50 [4]: 2.57 µM
EC50 [5]: > 25 µM
EC50 [6]: > 25 µM
Compound: CC(C)OC(C)(C)c1csc(NC(=O)c2cccn2[C@@H](C)c2ccncc2)n1 [Compound A74, (S)-N-(4-(2-isopropoxypropan-2-yl)thiazol-2-yl)-1-(1-(pyridin-4-yl)ethyl)-1H-pyrrole-2-carboxamide]

IC50 [1]: 3.99 µM
IC50 [2]: 12.5 µM
IC50 [3]: > 25 µM
IC50 [4]: 2.73 µM
EC50 [5]: > 25 µM
EC50 [6]: > 25 µM
Compound: Cc1ccc(C(=O)Nc2nc(C(C)(C)OC(C)C)cs2)n1Cc1ccncc1 [Compound A76, N-(4-(2-isopropoxypropan-2-yl)thiazol-2-yl)-5-methyl-1-(pyridin-4-ylmethyl)-1H-pyrrole-2-carboxamide]

IC50 [1]: 3.1 µM
IC50 [2]: 4.68 µM
IC50 [3]: > 25 µM
IC50 [4]: 3.05 µM
EC50 [5]: 25 µM
EC50 [6]: > 25 µM
Compound: CC(C)(C)c1csc(NC(=O)c2cccn2Cc2ccncc2Cl)n1 [Compound A77, N-(4-(tert-butyl)thiazol-2-yl)-1-((3-chloropyridin-4-yl)methyl)-1H-pyrrole-2-carboxamide]

IC50 [1]: 6.38 µM
IC50 [2]: 7.88 µM
IC50 [3]: > 25 µM
IC50 [4]: 3.16 µM
EC50 [5]: 20.9 µM
EC50 [6]: > 25 µM
Compound: CC(C)OC(C)(C)c1csc(NC(=O)c2cccn2Cc2ccccc2Cl)n1 [Compound A78]

IC50 [1]: 4.15 µM
IC50 [2]: 5.26 µM
IC50 [3]: > 25 µM
IC50 [4]: 3.18 µM
EC50 [5]: 24.9 µM
EC50 [6]: > 25 µM
Compound: CC(C)OC(C)(C)c1csc(NC(=O)c2cccn2Cc2ccccc2)n1 [Compound A79, 1-benzyl-N-(4-(2-isopropoxypropan-2-yl)thiazol-2-yl)-1H-pyrrole-2-carboxamide]

IC50 [1]: 3.53 µM
IC50 [2]: 7.88 µM
IC50 [3]: > 25 µM
IC50 [4]: 4.22 µM
EC50 [5]: 21.9 µM
EC50 [6]: > 25 µM
Compound: CC(C)OC(C)(C)c1csc(NC(=O)c2cccn2Cc2ccc(C#N)cc2)n1 [Compound A80, 1-(4-cyanobenzyl)-N-(4-(2-isopropoxypropan-2-yl)thiazol-2-yl)-1H-pyrrole-2-carboxamide]

IC50 [1]: > 25 µM
IC50 [2]: 23 µM
IC50 [3]: > 25 µM
IC50 [4]: 4.62 µM
EC50 [5]: > 25 µM
EC50 [6]: > 25 µM
Compound: COCc1csc(NC(=O)c2cccn2Cc2ccncc2)n1 [Compound A81]

IC50 [1]: 4.52 µM
IC50 [2]: > 25 µM
IC50 [3]: > 25 µM
IC50 [4]: 5.37 µM
EC50 [5]: > 25 µM
EC50 [6]: > 25 µM
Compound: Cc1cc(Cn2cccc2C(=O)Nc2nc(C(C)(C)OC(C)C)cs2)ccn1 [Compound A83, N-(4-(2-isopropoxypropan-2-yl)thiazol-2-yl)-1-((2-methylpyridin-4-yl)methyl)-1H-pyrrole-2-carboxamide]

IC50 [1]: 5.82 µM
IC50 [2]: > 25 µM
IC50 [3]: > 25 µM
IC50 [4]: 6.34 µM
EC50 [5]: > 25 µM
EC50 [6]: > 25 µM
Compound: CC(C)OC(C)(C)c1csc(NC(=O)c2cccn2Cc2ccc(S(C)(=O)=O)cc2)n1 [Compound A84, N-(4-(2-isopropoxypropan-2-yl)thiazol-2-yl)-1-(4-(methylsulfonyl)benzyl)-1H-pyrrole-2-carboxamide]

IC50 [1]: 8.59 µM
IC50 [2]: > 25 µM
IC50 [3]: > 25 µM
IC50 [4]: 8.13 µM
EC50 [5]: > 25 µM
EC50 [6]: > 25 µM
Compound: CC(C)OC(C)(C)c1csc(NC(=O)c2cccn2Cc2cccnc2)n1 [Compound A87, N-(4-(2-isopropoxypropan-2-yl)thiazol-2-yl)-1-(pyridin-3-ylmethyl)-1H-pyrrole-2-carboxamide]

IC50 [1]: > 21.6 µM
IC50 [2]: > 25 µM
IC50 [3]: > 25 µM
IC50 [4]: 11.9 µM
EC50 [5]: > 25 µM
EC50 [6]: > 25 µM
Compound: CC(C)OC(C)(C)c1csc(NC(=O)c2cccn2CCc2ccncc2)n1 [Compound A91, N-(4-(2-isopropoxypropan-2-yl)thiazol-2-yl)-1-(2-(pyridin-4-yl)ethyl)-1H-pyrrole-2-carboxamide]
